Source: ChEMBL document CHEMBL5034041, “Discovery of Meso-(meta-Pyridinium) BODIPY Photosensitizers: In Vitro and In Vivo Evaluations for Antimicrobial Photodynamic Therapy” (J Med Chem, 2021)
The source made the active and inactive calls. The calls are words filed in the database; no cut-off is given here.

Experiments:
[1] = Octanol-water partition coefficient, logP of the compound at 2 uM after 20 hrs by HPLC analysis; format: physicochemical
Candida albicans [2] = assay: Photodynamic antimicrobial activity against Candida albicans ATCC14053 assessed as loss of microbial viability at 2 uM preincubated for 15 mins followed by light irradiation at 81 J/cm^2 dose for 15 mins and measured after 36 hrs; format: functional; settings: time 36.5 hrs
[3] = Drug uptake in Staphylococcus aureus ATCC 29213 at 10 uM incubated at 37 degree for 15 mins by UV-vis absorption spectra analysis relative to control; format: ADME; settings: 0.25 h
Staphylococcus aureus [4] = assay: Photodynamic antimicrobial activity against Staphylococcus aureus ATCC 29213 preincubated for 15 mins followed by irradiation with 90 mW/cm^2 light for 15 mins and measured after 24 hrs; format: functional; settings: ATCC 29213, light or radiation study, time 24.5 hrs
Staphylococcus aureus [5] = assay: Photodynamic antimicrobial activity against Staphylococcus aureus […] assessed as loss of microbial viability at 2 uM preincubated for 15 mins followed by light irradiation at 81 J/cm^2 dose for 15 mins and measured after 36 hrs; format: functional; settings: time 36.5 hrs
[6] = Drug uptake in Escherichia coli ATCC 25922 at 10 uM incubated at 37 degree for 15 mins by UV-vis absorption spectra analysis relative to control; format: ADME; settings: 0.25 h
Staphylococcus aureus [7] = assay: Photodynamic antimicrobial activity against methicillin resistant Staphylococcus aureus ATCC43300 assessed as loss of microbial viability at 2 uM preincubated for 15 mins followed by light irradiation at 81 J/cm^2 dose for 15 mins and measured after 36 hrs; format: functional; settings: time 36.5 hrs
Escherichia coli [8] = assay: Photodynamic antimicrobial activity against Escherichia coli ATCC25922 assessed as loss of microbial viability at 2 uM preincubated for 15 mins followed by light irradiation at 81 J/cm^2 dose for 15 mins and measured after 36 hrs; format: functional, ATCC 25922; settings: time 36.5 hrs
Candida albicans [9] = assay: Drug uptake in Candida albicans ATCC 14053 at 10 uM incubated at 37 degree for 15 mins by UV-vis absorption spectra analysis relative to control; format: ADME, organism-based; settings: 0.25 h
Candida albicans [10] = assay: Photodynamic antimicrobial activity against Candida albicans ATCC 14053 preincubated for 15 mins followed by irradiation with 90 mW/cm^2 light for 15 mins and measured after 24 hrs; format: functional; settings: ATCC 14053, light or radiation study, time 24.5 hrs
Escherichia coli [11] = assay: Photodynamic antimicrobial activity against Escherichia coli ATCC 25922 preincubated for 15 mins followed by irradiation with 90 mW/cm^2 light for 15 mins and measured after 24 hrs; format: functional; settings: ATCC 25922, light or radiation study, time 24.5 hrs
Staphylococcus aureus [12] = assay: Photodynamic antimicrobial activity against methicillin resistant Staphylococcus aureus ATCC43300 preincubated for 15 mins followed by irradiation with 90 mW/cm^2 light for 15 mins and measured after 24 hrs; format: functional; settings: ATCC43300, light or radiation study, time 24.5 hrs
Cell membrane [13] = assay: Induction of cell membrane disruption in Candida albicans ATCC14053 at 2.5 uM preincubated for 15 mins followed by irradiated with 81 J/cm^2 light for 15 mins by DAPI staining based confocal laser scanning microscopic analysis; settings: time 30.0 min
Escherichia coli [14] = assay: Photodynamic antimicrobial activity against Escherichia coli ATCC25922 assessed as bacterial clearance ratio at 1.25 uM preincubated for 15 mins in dark followed by irradiation with 81 J/cm^2 light for 20 to 25 mins and measured after 36 hrs; format: functional, ATCC 25922; settings: time 2195-2200 min
Escherichia coli [15] = assay: Induction of morphological changes in Escherichia coli ATCC 25922 at 10 uM preincubated for 15 mins followed by light irradiation at 90 mW/cm2 for 15 mins by SEM analysis; format: functional, organism-based; settings: time 30.0 min
Candida albicans [16] = assay: Induction of ROS generation in Candida albicans ATCC14053 at 0.16 to 20 uM preincubated for 15 mins followed by irradiation with 81 J/cm^2 light for 15 mins by DCFH-DA staining-based fluorescence microscopy analysis; format: functional, organism-based; settings: dose 0.16-20 µM, time 30.0 min
HaCaT [17] = assay: Cytotoxicity against human HaCat Cells assessed as reduction in cell survival preincubated for 15 mins followed by irradiated with light at 81 J/cm^2 for 15 mins and measured after 24 hrs by CCK-8 assay; format: cell-based; settings: light or radiation study
Cell membrane [18] = assay: Induction of cell membrane disruption in Staphylococcus aureus ATCC29213 at 2.5 uM preincubated for 15 mins followed by irradiated with 81 J/cm^2 light for 15 mins by DAPI staining based confocal laser scanning microscopic analysis; settings: time 30.0 min
Escherichia coli [19] = assay: Photodynamic antimicrobial activity against Escherichia coli ATCC25922 assessed as bacterial clearance ratio at 1.25 uM preincubated for 15 mins in dark followed by irradiation with 27 J/cm^2 light for 5 mins and measured after 36 hrs; format: functional, ATCC 25922; settings: time 2180 min, 36.33 h
Staphylococcus aureus [20] = assay: Photodynamic antimicrobial activity against Staphylococcus aureus […] assessed as decrease in viable cell log count at 0.31 uM preincubated for 15 mins followed by light irradiation at 81 J/cm^2 dose for 15 mins and measured after 36 hrs; format: functional; settings: time 36.5 hrs
Escherichia coli [21] = assay: Photodynamic antimicrobial activity against Escherichia coli ATCC25922 assessed as bacterial clearance ratio at 1.25 uM preincubated for 15 mins in dark followed by irradiation with 81 J/cm^2 light for 15 mins and measured after 36 hrs; format: functional, ATCC 25922; settings: time 2190 min, 36.5 h
Staphylococcus aureus [22] = assay: Photodynamic antimicrobial activity against Staphylococcus aureus […] assessed as decrease in viable cell log count at 5 uM preincubated for 15 mins followed by light irradiation at 81 J/cm^2 dose for 15 mins and measured after 36 hrs; format: functional; settings: time 36.5 hrs
Candida albicans [23] = assay: Induction of morphological changes in Candida albicans ATCC 14053 at 10 uM preincubated for 15 mins followed by light irradiation at 90 mW/cm2 for 15 mins by SEM analysis; format: functional, organism-based; settings: time 30.0 min
HaCaT [24] = assay: Dark toxicity against human HaCat cells assessed as reduction in cell survival upto 20 uM incubated under dark condition for 15 mins by CCK-8 assay; format: cell-based; settings: 0.25 h
Staphylococcus aureus [25] = assay: In vivo antibacterial activity against Staphylococcus aureus ATCC29213 infected in Swiss albino mouse assessed as reduction in neutophils count at 10 mg treated on day 2 post infection and followed by irradiation with 81 J/cm^2 light for 15 mins and measured every 3 days upto 8 days by H and E staining analysis; format: functional, organism-based; settings: time 8.0 day
Candida albicans [26] = assay: Photodynamic antimicrobial activity against Candida albicans ATCC14053 assessed as reduction in viable cells log count at 0.5 uM preincubated in dark for 15 mins followed by light irradiation at 81 J/cm^2 dose for 15 mins and measured after 36 hrs; format: functional; settings: time 36.5 hrs
Escherichia coli [27] = assay: Photodynamic antimicrobial activity against Escherichia coli ATCC25922 assessed as bacterial clearance ratio at 1.25 uM preincubated for 15 mins in dark followed by irradiation with 54 J/cm^2 light for 10 mins and measured after 36 hrs; format: functional, ATCC 25922; settings: time 2185 min, 36.42 h
Cell membrane [28] = assay: Induction of cell membrane disruption in Escherichia coli ATCC25922 at 5 uM preincubated for 15 mins followed by irradiated with 81 J/cm^2 light for 15 mins by DAPI staining based confocal laser scanning microscopic analysis; settings: Escherichia coli ATCC 25922, time 30.0 min
Staphylococcus aureus [29] = assay: Photodynamic antimicrobial activity against methicillin resistant Staphylococcus aureus ATCC43300 assessed as log count reduction in viable cells at 1.25 uM incubated in dark for 15 mins followed by light irradiation at 81 J/cm^2 dose for 15 mins and measured after 36 hrs; format: functional; settings: time 36.5 hrs
Staphylococcus aureus [30] = assay: Photodynamic antimicrobial activity against methicillin resistant Staphylococcus aureus ATCC43300 assessed as log count reduction in viable cells at 0.625 uM preincubated in dark for 15 mins followed by light irradiation at 81 J/cm^2 dose for 15 mins and measured after 36 hrs; format: functional; settings: time 36.5 hrs
Staphylococcus aureus [31] = assay: Induction of morphological changes in Staphylococcus aureus ATCC 29213 at 10 uM preincubated for 15 mins followed by light irradiation at 90 mW/cm2 for 15 mins by SEM analysis; format: functional, organism-based; settings: time 30.0 min
Candida albicans [32] = assay: Photodynamic antimicrobial activity against Candida albicans ATCC14053 assessed as reduction in viable cells log count at 1 uM preincubated in dark for 15 mins followed by light irradiation at 81 J/cm^2 dose for 15 mins and measured after 36 hrs; format: functional; settings: time 36.5 hrs
Staphylococcus aureus [33] = assay: In vivo antibacterial activity against Staphylococcus aureus ATCC29213 infected in Swiss albino mouse assessed as wound healing at 10 mg treated on day 2 post infection and followed by irradiation with 81 J/cm^2 light for 15 mins and measured every 3 days upto 8 days; format: functional, organism-based; settings: time 8.0 day
Escherichia coli [34] = assay: Photodynamic antimicrobial activity against Escherichia coli ATCC25922 assessed as decrease in viable cell log count at 5 uM preincubated for 15 mins followed by light irradiation at 81 J/cm^2 dose for 15 mins and measured after 36 hrs; format: functional, ATCC 25922; settings: time 36.5 hrs
Escherichia coli [35] = assay: Photodynamic antimicrobial activity against Escherichia coli ATCC25922 assessed as decrease in viable cell log count at 2.5 uM preincubated for 15 mins followed by light irradiation at 81 J/cm^2 dose for 15 mins and measured after 36 hrs; format: functional, ATCC 25922; settings: time 36.5 hrs
Escherichia coli [36] = assay: Photodynamic antimicrobial activity against Escherichia coli ATCC25922 assessed as decrease in viable cell log count at 1.25 uM preincubated for 15 mins followed by light irradiation at 81 J/cm^2 dose for 15 mins and measured after 36 hrs; format: functional, ATCC 25922; settings: time 36.5 hrs

CC1=C(I)C(C)=[N+]2C1=C(c1ccncc1)c1c(C)c(I)c(C)n1[B-]2(F)F
logP at 20 h, 2 µM [1]: > 4

CC1=C(I)C(C)=[N+]2C1=C(c1cc[n+](C)cc1)c1c(C)c(I)c(C)n1[B-]2(F)F.[I-]
Activity (Candida albicans [2]): 77%
Drug uptake [3]: 65%
MIC (Staphylococcus aureus [4]): 2.5 µM
Activity (Staphylococcus aureus [5]): Active
Drug uptake [6]: 53%
Activity (Staphylococcus aureus [7]): Active
Activity (Escherichia coli [8]): 99.4%
logP at 20 h, 2 µM [1]: 2.14
Drug uptake (Candida albicans [9]): 23%
MIC (Candida albicans [10]): 2.5 µM
MIC (Escherichia coli [11]): 1.25 µM
MIC (Staphylococcus aureus [12]): 1.25 µM

CC1=C(I)C(C)=[N+]2C1=C(c1ccc[n+](C)c1)c1c(C)c(I)c(C)n1[B-]2(F)F.[I-]
Activity (Cell membrane [13]): Active
Activity (Escherichia coli [14]): >99.9998%
Activity (Escherichia coli [15]): inactive
Activity (Candida albicans [16]): Active
IC50 (HaCaT [17]): 3.86 µM
Activity (Candida albicans [2]): >99.9%
Activity (Cell membrane [18]): Active
Drug uptake [3]: 56%
Activity (Escherichia coli [19]): 99.23%
MIC (Staphylococcus aureus [4]): 1.25 µM
log(activity) (Staphylococcus aureus [20]): 3.59
Activity (Escherichia coli [21]): >99.9998%
Activity (Staphylococcus aureus [5]): >99.9999%
log(activity) (Staphylococcus aureus [22]): 7.05
Drug uptake [6]: 47%
Activity (Candida albicans [23]): inactive
Activity (HaCaT [24]): Non-Toxic
Activity (Staphylococcus aureus [25]): Active
Activity (Candida albicans [26]): 98%
Activity (Escherichia coli [27]): 99.97%
Activity (Cell membrane [28]): Active
log(activity) (Staphylococcus aureus [29]): >6.7
log(activity) (Staphylococcus aureus [30]): 3.8
Activity (Staphylococcus aureus [31]): inactive
Activity (Escherichia coli [8]): 99.9999%
logP at 20 h, 2 µM [1]: 1.44
Drug uptake (Candida albicans [9]): 9%
MIC (Candida albicans [10]): 0.63 µM
Activity (Candida albicans [32]): 99.99%
Activity (Staphylococcus aureus [33]): Active
MIC (Escherichia coli [11]): 0.63 µM
MIC (Staphylococcus aureus [12]): 0.63 µM

CCCCCCC[n+]1cccc(C2=C3C(C)=C(I)C(C)=[N+]3[B-](F)(F)n3c(C)c(I)c(C)c32)c1.[I-]
Activity (Candida albicans [2]): Active
Drug uptake [3]: 72%
MIC (Staphylococcus aureus [4]): 2.5 µM
Activity (Staphylococcus aureus [5]): >99.9999%
Drug uptake [6]: 61%
logP at 20 h, 2 µM [1]: > 4
Drug uptake (Candida albicans [9]): 27%
MIC (Candida albicans [10]): 1.25 µM
MIC (Escherichia coli [11]): 0.63 µM
MIC (Staphylococcus aureus [12]): 0.63 µM

CC1=C(I)C(C)=[N+]2C1=C(c1ccc[n+](Cc3ccccc3)c1)c1c(C)c(I)c(C)n1[B-]2(F)F.[Br-]
Activity (Candida albicans [2]): Active
Drug uptake [3]: 80%
MIC (Staphylococcus aureus [4]): 2.5 µM
Activity (Staphylococcus aureus [5]): >99.9999%
Drug uptake [6]: 68%
logP at 20 h, 2 µM [1]: > 4
Drug uptake (Candida albicans [9]): 25%
MIC (Candida albicans [10]): 1.25 µM
MIC (Escherichia coli [11]): 0.63 µM
MIC (Staphylococcus aureus [12]): 0.63 µM

CC1=C(I)C(C)=[N+]2C1=C(c1ccccn1)c1c(C)c(I)c(C)n1[B-]2(F)F
logP at 20 h, 2 µM [1]: > 4

CC1=C(I)C(C)=[N+]2C1=C(c1cccc[n+]1C)c1c(C)c(I)c(C)n1[B-]2(F)F.[I-]
log(activity) (Escherichia coli [34]): 6.62
Activity (Candida albicans [2]): 77%
Drug uptake [3]: 4%
MIC (Staphylococcus aureus [4]): 10 µM
Activity (Staphylococcus aureus [5]): 99.9%
Drug uptake [6]: 10%
Activity (Escherichia coli [8]): 99.3%
logP at 20 h, 2 µM [1]: 0.17
log(activity) (Escherichia coli [35]): 5.26
Drug uptake (Candida albicans [9]): 4%
MIC (Candida albicans [10]): 2.5 µM
log(activity) (Escherichia coli [36]): 2.53
MIC (Escherichia coli [11]): 1.25 µM
MIC (Staphylococcus aureus [12]): 1.25 µM

CC1=C(I)C(C)=[N+]2C1=C(c1cccnc1)c1c(C)c(I)c(C)n1[B-]2(F)F
logP at 20 h, 2 µM [1]: > 4
